Data from patent US20230146455A1, “TREATMENT OF INFLAMMATORY DISEASES WITH PEPTIDES AND PHARMACEUTICAL COMPOSITIONS” (Yuyu Pharma, Inc., priority 2020, published 2023).
Values joined by “and” are separate entries in the source; they are usually repeats but may differ in a detail not shown here. Equal entries are not always repeated. Where a SMILES comes first, the peptide text is derived from it. [ ]: non-standard residue; d: D form. Hyp = O=C(O)[C@@H]1C[C@@H](O)CN1

System: IL-1 beta/IL-1F2
Assay: Example 8 main study Luminex, LPS hPBMCs: IL-1 beta/IL-1F2
Type: cell-based, human
Procedure: Human PBMCs were pretreated with YY-101, YDE-011, YDE-043 or reference compound; Xiidra® at various concentration (ranging from […] to 500 nM) for 2 h before stimulation. An equal volume of 0.5% DMSO was used as a vehicle control. Then, the cells were treated with LPS at 5 ug/ml, which was selected based on the pilot study. The supernatants from treated cells were harvested at 24 h and placed in a 96 well for Luminex cytokine & chemokine profiling using a Luminex 200 multiplex assay (Luminex; R&D system, USA).
The main study arm with triplicate wells per group in a 24-well plate: • 1. Blank • 2. PBMC: 0.5% DMSO • 3. PBMC+LPS (5 ug/ml) • 4. PBMC+YY-101 500 nM • 5. PBMC+YY-101 50 nM • 6. PBMC+YY-101 5 nM • 7. PBMC+YY-101 0.5 nM • 8. PBMC+LPS (5 ug/ml)+Xiidra® 500 nM • 9. PBMC+LPS (5 ug/ml)+Xiidra® 50 nM • 10. PBMC+LPS (5 ug/ml)+Xiidra® 5 nM • 11. PBMC+LPS (5 ug/ml)+Xiidra® 0.5 nM • 12. PBMC+LPS (5 ug/ml)+Xiidra® 0.05 nM • 13. PBMC+LPS (5 ug/ml)+Xiidra® 0.005 nM • 14. PBMC+LPS (5 ug/ml)+YY-101 500 nM • 15. PBMC+LPS (5 ug/ml)+YY-101 50 nM • 16. PBMC+LPS (5 ug/ml)+YY-101 5 nM • 17. PBMC+LPS (5 ug/ml)+YY-101 0.5 nM • 18. PBMC+LPS (5 ug/ml)+YY-101 0.05 nM • 19. PBMC+LPS (5 ug/ml)+YY-101 0.005 nM • 20. PBMC+LPS (5 ug/ml)+YDE-011 500 nM • 21. PBMC+LPS (5 ug/ml)+YDE-011 50 nM • 22. PBMC+LPS (5 ug/ml)+YDE-011 5 nM • 23. PBMC+LPS (5 ug/ml)+YDE-011 0.5 nM • 24. PBMC+LPS (5 ug/ml)+YDE-011 0.05 nM • 25. PBMC+LPS (5 ug/ml)+YDE-011 0.005 nM • 26. PBMC+LPS (5 ug/ml)+YDE-043 500 nM • 27. PBMC+LPS (5 ug/ml)+YDE-043 50 nM • 28. PBMC+LPS (5 ug/ml)+YDE-043 5 nM • 29. PBMC+LPS (5 ug/ml)+YDE-043 0.5 nM • 30. PBMC+LPS (5 ug/ml)+YDE-043 0.05 nM • 31. PBMC+LPS (5 ug/ml)+YDE-043 0.005 nM
Multiplex assay was used to measure 30 cytokines and chemokines. The 1:200 diluted cell supernatant and serial dilution of the standard were dispensed into a 96 well plate at 50 ul/well. Then, the pre-mixed cocktail of antibody-coated magnetic beads was dispensed at 50 ul/well and incubated at room temperature for 2 h in a horizontal orbital microplate shaker at 800±500 rpm. The beads were washed using a magnetic device to prevent loss. The biotin-antibody was dispensed in 50 ul of each well and incubated at room temperature for 1 h in a shaker at 800±500 rpm. After washing, streptavidin-PE was added at 50 ul/well and incubated at room temperature for 30 min in a shaker under the same conditions. Finally, after washing, wash buffer (100 ul/well) was added to the plate and incubated in a shaker for 2 min. The Luminex™ 200 setting were set according to the manufacturer's protocol. The data was calculated with a standard five-parameter logistic nonlinear regression analysis of the data (xPonent software 4.2, USA). Results were presented as concentration (ng/ml or pg/ml).

[1] = PBMC + LPS(5 ug/ml) + test article 0.005 nM, Mean
[2] = PBMC + LPS(5 ug/ml) + test article 0.005 nM, individual replicates
[3] = PBMC + LPS(5 ug/ml) + test article 0.05 nM, Mean
[4] = PBMC + LPS(5 ug/ml) + test article 0.05 nM, individual replicates
[5] = PBMC + LPS(5 ug/ml) + test article 0.5 nM, Mean
[6] = PBMC + LPS(5 ug/ml) + test article 0.5 nM, individual replicates
[7] = PBMC + LPS(5 ug/ml) + test article 5 nM, Mean
[8] = PBMC + LPS(5 ug/ml) + test article 5 nM, individual replicates
[9] = PBMC + LPS(5 ug/ml) + test article 50 nM, Mean
[10] = PBMC + LPS(5 ug/ml) + test article 50 nM, individual replicates
[11] = PBMC + LPS(5 ug/ml) + test article 500 nM, Mean
[12] = PBMC + LPS(5 ug/ml) + test article 500 nM, individual replicates
[13] = PBMC + test article 0.5 nM, no LPS, Mean
[14] = PBMC + test article 0.5 nM, no LPS, individual replicates (1st, 2nd)
[15] = PBMC + test article 5 nM, no LPS, Mean
[16] = PBMC + test article 5 nM, no LPS, individual replicates (1st, 2nd)
[17] = PBMC + test article 0.05 uM, no LPS, Mean
[18] = PBMC + test article 0.05 uM, no LPS, individual replicates (1st, 2nd)
[19] = PBMC + test article 50 nM, no LPS, Mean
[20] = PBMC + test article 50 nM, no LPS, individual replicates (1st, 2nd)
[21] = PBMC + test article 500 nM, no LPS, Mean
[22] = PBMC + test article 500 nM, no LPS, individual replicates (1st, 2nd)

Question: `CC(C)C[C@H](NC(=O)CNC(=O)[C@H](CC(=O)O)NC(=O)[C@H](CCC(N)=O)NC(=O)CNC(=O)[C@@H]1C[C@@H](O)CN1)C(=O)N[C@@H](C)C(=O)NCC(=O)N1CCC[C@H]1C(=O)N[C@@H](CCCCN)C(=O)O` [YY-101] (H-[Hyp]GQDGLAGPK-OH; N-terminus and C-terminus assumed) was tested. Which “IL-1 beta/IL-1F2 Concentration” value [1] did it give?
Answer: 5806.3 pg/mL

Question: And the “IL-1 beta/IL-1F2 MFI” value [1]?
Answer: 105.2

Question: What about the “IL-1 beta/IL-1F2 Concentration” value [2] of the same compound?
Answer: 5975.0 pg/mL and 6004.7 pg/mL and 5439.3 pg/mL

Question: And the “IL-1 beta/IL-1F2 MFI” value [2]?
Answer: 108.0 and 108.5 and 99.0

Question: What about the “IL-1 beta/IL-1F2 Concentration” value [3] of the same compound?
Answer: 6004.8 pg/mL

Question: What about the “IL-1 beta/IL-1F2 MFI” value [3] of the same compound?
Answer: 108.5

Question: And the “IL-1 beta/IL-1F2 Concentration” value [4]?
Answer: 5736.8 pg/mL and 6511.1 pg/mL and 5766.6 pg/mL

Question: What about the “IL-1 beta/IL-1F2 MFI” value [4] of the same compound?
Answer: 104.0 and 117.0 and 104.5

Question: What about the “IL-1 beta/IL-1F2 Concentration” value [5] of the same compound?
Answer: 6044.5 pg/mL

Question: And the “IL-1 beta/IL-1F2 MFI” value [5]?
Answer: 109.2

Question: What about the “IL-1 beta/IL-1F2 Concentration” value [6] of the same compound?
Answer: 5736.8 pg/mL and 5975.0 pg/mL and 6421.7 pg/mL

Question: What about the “IL-1 beta/IL-1F2 MFI” value [6] of the same compound?
Answer: 104.0 and 108.0 and 115.5

Question: What about the “IL-1 beta/IL-1F2 Concentration” value [7] of the same compound?
Answer: 5875.9 pg/mL

Question: And the “IL-1 beta/IL-1F2 MFI” value [7]?
Answer: 106.3

Question: And the “IL-1 beta/IL-1F2 Concentration” value [8]?
Answer: 5498.8 pg/mL and 5558.3 pg/mL and 6570.7 pg/mL

Question: And the “IL-1 beta/IL-1F2 MFI” value [8]?
Answer: 100.0 and 101.0 and 118.0

Question: What about the “IL-1 beta/IL-1F2 Concentration” value [9] of the same compound?
Answer: 5608.2 pg/mL

Question: What about the “IL-1 beta/IL-1F2 MFI” value [9] of the same compound?
Answer: 101.8

Question: What about the “IL-1 beta/IL-1F2 Concentration” value [10] of the same compound?
Answer: 5201.4 pg/ml (2×) and 6421.7 pg/ml

Question: What about the “IL-1 beta/IL-1F2 MFI” value [10] of the same compound?
Answer: 95.0 (2×) and 115.5

Question: What about the “IL-1 beta/IL-1F2 Concentration” value [11] of the same compound?
Answer: 5578.2 pg/mL

Question: What about the “IL-1 beta/IL-1F2 MFI” value [11] of the same compound?
Answer: 101.3

Question: And the “IL-1 beta/IL-1F2 Concentration” value [12]?
Answer: 5260.9 pg/mL and 5915.4 pg/mL and 5558.3 pg/mL

Question: And the “IL-1 beta/IL-1F2 MFI” value [12]?
Answer: 96.0 and 107.0 and 101.0

Question: What about the “IL-1 beta/IL-1F2 Concentration” value [13] of the same compound?
Answer: 391.1 pg/mL

Question: What about the “IL-1 beta/IL-1F2 MFI” value [13] of the same compound?
Answer: 13.5

Question: What about the “IL-1 beta/IL-1F2 Concentration” value [14] of the same compound?
Answer: 362.0 pg/mL and 420.1 pg/mL

Question: What about the “IL-1 beta/IL-1F2 MFI” value [14] of the same compound?
Answer: 13.0 and 14.0

Question: What about the “IL-1 beta/IL-1F2 Concentration” value [15] of the same compound?
Answer: 391.1 pg/mL

Question: What about the “IL-1 beta/IL-1F2 MFI” value [15] of the same compound?
Answer: 13.5

Question: And the “IL-1 beta/IL-1F2 Concentration” value [16]?
Answer: 362.0 pg/mL and 420.1 pg/mL

Question: What about the “IL-1 beta/IL-1F2 MFI” value [16] of the same compound?
Answer: 13.0 and 14.0

Question: What about the “IL-1 beta/IL-1F2 Concentration” value [17] of the same compound?
Answer: 420.1 pg/mL

Question: And the “IL-1 beta/IL-1F2 MFI” value [17]?
Answer: 14.0

Question: What about the “IL-1 beta/IL-1F2 Concentration” value [18] of the same compound?
Answer: 420.1 pg/mL

Question: And the “IL-1 beta/IL-1F2 MFI” value [18]?
Answer: 14.0

Question: And the “IL-1 beta/IL-1F2 Concentration” value [19]?
Answer: 362.0 pg/mL

Question: And the “IL-1 beta/IL-1F2 MFI” value [19]?
Answer: 13.0

Question: What about the “IL-1 beta/IL-1F2 Concentration” value [20] of the same compound?
Answer: 362.0 pg/mL

Question: What about the “IL-1 beta/IL-1F2 MFI” value [20] of the same compound?
Answer: 13.0

Question: What about the “IL-1 beta/IL-1F2 Concentration” value [21] of the same compound?
Answer: 420.1 pg/mL

Question: What about the “IL-1 beta/IL-1F2 MFI” value [21] of the same compound?
Answer: 14.0

Question: What about the “IL-1 beta/IL-1F2 Concentration” value [22] of the same compound?
Answer: 420.1 pg/mL

Question: And the “IL-1 beta/IL-1F2 MFI” value [22]?
Answer: 14.0
